Legend:
Assay type in all cases: in vivo
Oryza sativa = experiment: Crop compatibility post-emergence, greenhouse pot test
In short: (§1)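 Crops grown in sandy loam in greenhouse pots; treated post-emergence at one-leaf stage, 2–3 weeks after sowing, spraying WP or EC formulations as aqueous suspension/emulsion with 0.5% additive at 600 L/ha. Damage scored visually after about 3 weeks against untreated controls (0% = like control, 100% = dead).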

Zea mays = experiment: as above
In short: as §1

Abutilon theophrasti [1] = experiment: Herbicidal action post-emergence, greenhouse pot test
In short: (§2)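 Test plants, treated at the one-leaf stage 2 to 3 weeks after sowing in sandy loam, received a foliar spray at 80 g/ha or lower. Visual damage was rated about 3 weeks later as percent efficacy versus untreated plants.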

Echinochloa crus-galli [2] = experiment: as above
In short: as §2

Hordeum murinum [3] = experiment: as above
In short: as §2

Pharbitis purpurea [4] = experiment: as above
In short: as §2

Polygonum convolvulus [5] = experiment: as above
In short: as §2

Stellaria media [6] = experiment: as above
In short: as §2

Matricaria inodora [7] = experiment: as above
In short: as §2

Viola tricolor [8] = experiment: as above
In short: as §2

Amaranthus retroflexus [9] = experiment: as above
In short: as §2

Lolium rigidum [10] = experiment: as above
In short: as §2

Veronica persica [11] = experiment: as above
In short: as §2

Setaria viridis [12] = experiment: as above
In short: as §2

Digitaria sanguinalis = experiment: as above; conditions: application rate 20 g/ha
Triticum aestivum = experiment: Crop compatibility post-emergence, greenhouse pot test
In short: as §1

Alopecurus myosuroides [13] = experiment: Herbicidal action post-emergence, greenhouse pot test; conditions: scored visually after about 3 weeks vs untreated controls
In short: as §2

Avena fatua [14] = experiment: as above; conditions: application rate 80 g/ha
In short: as §2

Abutilon theophrasti [15] = experiment: Herbicidal action pre-emergence, greenhouse pot test
In short: (§3)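 Under good greenhouse growth conditions, treated pots are compared visually with untreated ones about three weeks after spraying; the score runs from 0% (like control) to 100% (plants died). Treatment was a WP or EC spray to the soil over sown seeds, at up to 320 g/ha.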

Echinochloa crus-galli [16] = experiment: as above; conditions: application rate 320 g/ha
In short: as §3

Hordeum murinum [17] = experiment: as above; conditions: application rate 320 g/ha
In short: as §3

Pharbitis purpurea [18] = experiment: as above
In short: as §3

Polygonum convolvulus [19] = experiment: as above
In short: as §3

Stellaria media [20] = experiment: as above
In short: as §3

Viola tricolor [21] = experiment: as above
In short: as §3

Alopecurus myosuroides [22] = experiment: as above; conditions: application rate 320 g/ha
In short: as §3

Avena fatua [23] = experiment: as above; conditions: application rate 320 g/ha
In short: as §3

Amaranthus retroflexus [24] = experiment: as above
In short: as §3

Lolium rigidum [25] = experiment: as above; conditions: application rate 320 g/ha
In short: as §3

Cyperus esculentus = experiment: as above; conditions: application rate 320 g/ha
In short: as §3

Veronica persica [26] = experiment: as above
In short: as §3

Setaria viridis [27] = experiment: as above
In short: as §3

Matricaria inodora [28] = experiment: as above

COC(=O)C1(OC(=O)C(C)Sc2cc(-n3c(=O)cc(C(F)(F)F)n(C)c3=O)c(F)cc2Cl)CC1 (stereo not shown) [I.1-102]
0%: Oryza sativa (Efficacy in %) (Oryza sativa; application rate 5 g/ha) | Zea mays (Efficacy in %) (Zea mays; application rate 5 g/ha)
80%: Stellaria media (Efficacy in %) (Stellaria media [6]; application rate 20 g/ha) | Lolium rigidum (Efficacy in %) (Lolium rigidum [10]; application rate 20 g/ha)
100%: Abutilon theophrasti (Efficacy in %) (Abutilon theophrasti [1]; application rate 20 g/ha) | Echinochloa crus-galli (Efficacy in %) (Echinochloa crus-galli [2]; application rate 20 g/ha) | Hordeum murinum (Efficacy in %) (Hordeum murinum [3]; application rate 20 g/ha) | Pharbitis purpurea (Efficacy in %) (Pharbitis purpurea [4]; application rate 20 g/ha) | Polygonum convolvulus (Efficacy in %) (Polygonum convolvulus [5]; application rate 20 g/ha) | Matricaria inodora (Efficacy in %) (Matricaria inodora [7]; application rate 20 g/ha) | Viola tricolor (Efficacy in %) (Viola tricolor [8]; application rate 20 g/ha) | Amaranthus retroflexus (Efficacy in %) (Amaranthus retroflexus [9]; application rate 20 g/ha) | Veronica persica (Efficacy in %) (Veronica persica [11]; application rate 20 g/ha) | Setaria viridis (Efficacy in %) (Setaria viridis [12]; application rate 20 g/ha) | Digitaria sanguinalis (Efficacy in %) (Digitaria sanguinalis)

CNC(=O)COC(=O)C(C)Sc1cc(-n2c(=O)cc(C(F)(F)F)n(C)c2=O)c(F)cc1Cl (stereo not shown) [I.1-182]
90%: Avena fatua (Efficacy in %) (Avena fatua [14]) | Hordeum murinum (Efficacy in %) (Hordeum murinum [17]) | Avena fatua (Efficacy in %) (Avena fatua [23])
100%: Abutilon theophrasti (Efficacy in %) (Abutilon theophrasti [1]; application rate 80 g/ha) | Echinochloa crus-galli (Efficacy in %) (Echinochloa crus-galli [2]; application rate 80 g/ha) | Pharbitis purpurea (Efficacy in %) (Pharbitis purpurea [4]; application rate 80 g/ha) | Polygonum convolvulus (Efficacy in %) (Polygonum convolvulus [5]; application rate 80 g/ha) | Stellaria media (Efficacy in %) (Stellaria media [6]; application rate 80 g/ha) | Matricaria inodora (Efficacy in %) (Matricaria inodora [7]; application rate 80 g/ha) | Viola tricolor (Efficacy in %) (Viola tricolor [8]; application rate 20 g/ha) | Amaranthus retroflexus (Efficacy in %) (Amaranthus retroflexus [9]; application rate 80 g/ha) | Lolium rigidum (Efficacy in %) (Lolium rigidum [10]; application rate 80 g/ha) | Veronica persica (Efficacy in %) (Veronica persica [11]; application rate 80 g/ha) | Abutilon theophrasti (Efficacy in %) (Abutilon theophrasti [15]; application rate 320 g/ha) | Echinochloa crus-galli (Efficacy in %) (Echinochloa crus-galli [16]) | Pharbitis purpurea (Efficacy in %) (Pharbitis purpurea [18]; application rate 320 g/ha) | Polygonum convolvulus (Efficacy in %) (Polygonum convolvulus [19]; application rate 320 g/ha) | Stellaria media (Efficacy in %) (Stellaria media [20]; application rate 320 g/ha) | Viola tricolor (Efficacy in %) (Viola tricolor [21]; application rate 320 g/ha) | Amaranthus retroflexus (Efficacy in %) (Amaranthus retroflexus [24]; application rate 80 g/ha) | Lolium rigidum (Efficacy in %) (Lolium rigidum [25]) | Veronica persica (Efficacy in %) (Veronica persica [26]; application rate 320 g/ha) | Setaria viridis (Efficacy in %) (Setaria viridis [27]; application rate 320 g/ha) | Matricaria inodora (Efficacy in %) (Matricaria inodora [28]; application rate 320 g/ha)
20%: Oryza sativa (Efficacy in %) (Oryza sativa; application rate 20 g/ha) | Zea mays (Efficacy in %) (Zea mays; application rate 20 g/ha)
10%: Triticum aestivum (Efficacy in %) (Triticum aestivum; application rate 5 g/ha)
80%: Alopecurus myosuroides (Efficacy in %) (Alopecurus myosuroides [13]; application rate 80 g/ha) | Alopecurus myosuroides (Efficacy in %) (Alopecurus myosuroides [22]) | Cyperus esculentus (Efficacy in %) (Cyperus esculentus)

CC(Sc1cc(-n2c(=O)cc(C(F)(F)F)n(C)c2=O)c(F)cc1Cl)C(=O)OCC(=O)OCc1ccccc1 (stereo not shown) [I.1-46]
80%: Alopecurus myosuroides (Efficacy in %) (Alopecurus myosuroides [13]; application rate 20 g/ha) | Lolium rigidum (Efficacy in %) (Lolium rigidum [10]; application rate 20 g/ha)
20%: Triticum aestivum (Efficacy in %) (Triticum aestivum; application rate 20 g/ha)
100%: Abutilon theophrasti (Efficacy in %) (Abutilon theophrasti [1]; application rate 20 g/ha) | Echinochloa crus-galli (Efficacy in %) (Echinochloa crus-galli [2]; application rate 20 g/ha) | Hordeum murinum (Efficacy in %) (Hordeum murinum [3]; application rate 20 g/ha) | Pharbitis purpurea (Efficacy in %) (Pharbitis purpurea [4]; application rate 20 g/ha) | Polygonum convolvulus (Efficacy in %) (Polygonum convolvulus [5]; application rate 20 g/ha) | Stellaria media (Efficacy in %) (Stellaria media [6]; application rate 20 g/ha) | Matricaria inodora (Efficacy in %) (Matricaria inodora [7]; application rate 20 g/ha) | Viola tricolor (Efficacy in %) (Viola tricolor [8]; application rate 20 g/ha) | Amaranthus retroflexus (Efficacy in %) (Amaranthus retroflexus [9]; application rate 20 g/ha) | Veronica persica (Efficacy in %) (Veronica persica [11]; application rate 20 g/ha) | Setaria viridis (Efficacy in %) (Setaria viridis [12]; application rate 20 g/ha) | Digitaria sanguinalis (Efficacy in %) (Digitaria sanguinalis)

COC(=O)COC(=O)CSc1cc(-n2c(=O)cc(C(F)(F)F)n(C)c2=O)c(F)cc1Cl [I.8-42]
20%: Triticum aestivum (Efficacy in %) (Triticum aestivum; application rate 5 g/ha)
80%: Hordeum murinum (Efficacy in %) (Hordeum murinum [3]; application rate 80 g/ha) | Hordeum murinum (Efficacy in %) (Hordeum murinum [17]) | Avena fatua (Efficacy in %) (Avena fatua [23]) | Lolium rigidum (Efficacy in %) (Lolium rigidum [25])
0%: Oryza sativa (Efficacy in %) (Oryza sativa; application rate 20 g/ha)
100%: Abutilon theophrasti (Efficacy in %) (Abutilon theophrasti [1]; application rate 80 g/ha) | Echinochloa crus-galli (Efficacy in %) (Echinochloa crus-galli [2]; application rate 80 g/ha) | Pharbitis purpurea (Efficacy in %) (Pharbitis purpurea [4]; application rate 80 g/ha) | Polygonum convolvulus (Efficacy in %) (Polygonum convolvulus [5]; application rate 80 g/ha) | Stellaria media (Efficacy in %) (Stellaria media [6]; application rate 80 g/ha) | Matricaria inodora (Efficacy in %) (Matricaria inodora [7]; application rate 20 g/ha) | Viola tricolor (Efficacy in %) (Viola tricolor [8]; application rate 80 g/ha) | Amaranthus retroflexus (Efficacy in %) (Amaranthus retroflexus [9]; application rate 20 g/ha) | Veronica persica (Efficacy in %) (Veronica persica [11]; application rate 80 g/ha) | Setaria viridis (Efficacy in %) (Setaria viridis [12]; application rate 80 g/ha) | Abutilon theophrasti (Efficacy in %) (Abutilon theophrasti [15]; application rate 320 g/ha) | Echinochloa crus-galli (Efficacy in %) (Echinochloa crus-galli [16]) | Pharbitis purpurea (Efficacy in %) (Pharbitis purpurea [18]; application rate 320 g/ha) | Polygonum convolvulus (Efficacy in %) (Polygonum convolvulus [19]; application rate 320 g/ha) | Stellaria media (Efficacy in %) (Stellaria media [20]; application rate 320 g/ha) | Viola tricolor (Efficacy in %) (Viola tricolor [21]; application rate 320 g/ha) | Amaranthus retroflexus (Efficacy in %) (Amaranthus retroflexus [24]; application rate 20 g/ha) | Cyperus esculentus (Efficacy in %) (Cyperus esculentus) | Veronica persica (Efficacy in %) (Veronica persica [26]; application rate 320 g/ha) | Setaria viridis (Efficacy in %) (Setaria viridis [27]; application rate 320 g/ha) | Matricaria inodora (Efficacy in %) (Matricaria inodora [28]; application rate 320 g/ha)

CC(C)NC(=O)COC(=O)C(C)Sc1cc(-n2c(=O)cc(C(F)(F)F)n(C)c2=O)c(F)cc1Cl (stereo not shown) [I.1-184]
80%: Hordeum murinum (Efficacy in %) (Hordeum murinum [3]; application rate 80 g/ha) | Alopecurus myosuroides (Efficacy in %) (Alopecurus myosuroides [13]; application rate 80 g/ha)
20%: Zea mays (Efficacy in %) (Zea mays; application rate 20 g/ha)
100%: Abutilon theophrasti (Efficacy in %) (Abutilon theophrasti [1]; application rate 80 g/ha) | Echinochloa crus-galli (Efficacy in %) (Echinochloa crus-galli [2]; application rate 80 g/ha) | Pharbitis purpurea (Efficacy in %) (Pharbitis purpurea [4]; application rate 80 g/ha) | Polygonum convolvulus (Efficacy in %) (Polygonum convolvulus [5]; application rate 80 g/ha) | Stellaria media (Efficacy in %) (Stellaria media [6]; application rate 80 g/ha) | Matricaria inodora (Efficacy in %) (Matricaria inodora [7]; application rate 80 g/ha) | Viola tricolor (Efficacy in %) (Viola tricolor [8]; application rate 80 g/ha) | Amaranthus retroflexus (Efficacy in %) (Amaranthus retroflexus [9]; application rate 80 g/ha) | Lolium rigidum (Efficacy in %) (Lolium rigidum [10]; application rate 80 g/ha) | Veronica persica (Efficacy in %) (Veronica persica [11]; application rate 80 g/ha) | Setaria viridis (Efficacy in %) (Setaria viridis [12]; application rate 20 g/ha) | Abutilon theophrasti (Efficacy in %) (Abutilon theophrasti [15]; application rate 80 g/ha) | Echinochloa crus-galli (Efficacy in %) (Echinochloa crus-galli [16]) | Pharbitis purpurea (Efficacy in %) (Pharbitis purpurea [18]; application rate 80 g/ha) | Polygonum convolvulus (Efficacy in %) (Polygonum convolvulus [19]; application rate 80 g/ha) | Stellaria media (Efficacy in %) (Stellaria media [20]; application rate 80 g/ha) | Viola tricolor (Efficacy in %) (Viola tricolor [21]; application rate 80 g/ha) | Amaranthus retroflexus (Efficacy in %) (Amaranthus retroflexus [24]; application rate 80 g/ha) | Lolium rigidum (Efficacy in %) (Lolium rigidum [25]) | Veronica persica (Efficacy in %) (Veronica persica [26]; application rate 80 g/ha) | Setaria viridis (Efficacy in %) (Setaria viridis [27]; application rate 80 g/ha) | Matricaria inodora (Efficacy in %) (Matricaria inodora [28]; application rate 80 g/ha)
90%: Hordeum murinum (Efficacy in %) (Hordeum murinum [17]) | Alopecurus myosuroides (Efficacy in %) (Alopecurus myosuroides [22]) | Avena fatua (Efficacy in %) (Avena fatua [23])

Reference: patent US11274083B2, “Substituted thiophenyl uracils, salts thereof and the use thereof as herbicidal agents” (Syngenta Crop Protection AG, priority 2017, dated 2022)
